# According to patent publication US20210324441A1, “CHARACTERIZATION OF MICROORGANISMS VIA MALDI-TOF” (BIOMÉRIEUX, priority 2014, published 2021):
# Tests used:
# [1] = tested on: E. coli; experiment: MIC of ampicillin for the bacterial strain; assay type: cell-based
# [2] = Negative control without enzyme: ampicillin dried on MALDI plate, MALDI-TOF detection; assay type: physicochemical; conditions: water with 0.76 mM zinc, no enzyme, ambient temperature, one hour
# Protocol: In the present experiment, an analysis zone of a MALDI plate (VITEK® MS disposable slides TO-430) was treated with a beta-lactam antibiotic and tested in order to evaluate the capacity of the antibiotics to be cleaved by a beta-lactamase. Ampicillin was used as the model for the antibiotic beta-lactam. The experiment was carried out by implementing the steps below: • 2 μL of a solution of ampicillin in a concentration of 10 mg/mL in water was deposited in the form of a drop onto an analysis zone of the MALDI plate. The plate was incubated at 37° C., until the drop had dried out completely. • 2 μL of a recombinant beta-lactamase (β-lactamase from Pseudomonas aeruginosa, Sigma-Aldrich batch L6170-550UN. CAS: 9073-60-3). • 2 μL of recombinant β-lactamase at a concentration of 1 mg/mL in water was used diluted in water supplemented with zinc in the form of zinc sulfate (0.76 millimoles (mM)) to promote enzymatic activity, was deposited onto the dry analysis zone carrying ampicillin. […]
# [3] = tested on: K. pneumoniae; experiment: MIC of ampicillin for the bacterial strain; assay type: cell-based; conditions: strain 1, K. pneumoniae, resistant
structure (smiles),measurement,setting,value
CC1(C)S[C@@H]2[C@H](NC(=O)[C@H](N)c3ccccc3)C(=O)N2[C@H]1C(=O)O [ampicillin],MIC of ampicillin (minimum inhibiting concentration of the strain),"[1]; strain 2, E. coli, resistant, penicillinase",>128
same,MIC of ampicillin (minimum inhibiting concentration of the strain),"[1]; strain 3, E. coli, resistant, TEM β-lactamase",>128
same,MIC of ampicillin (minimum inhibiting concentration of the strain),"[1]; strain 4, E. coli ATCC 25922, sensitive, no β-lactamase",4
same,spontaneous hydrolysis on the plate,[2],A little spontaneous hydrolysis
same,MIC of ampicillin (minimum inhibiting concentration of the strain),[3],32
